# Laboratory results from US6737383B1, “Herbicidal oxadiazolidines” (priority 1999, dated 2004).
# Legend:
# cocklebur = assay: Test B pre/postemergence cocklebur; assay type: in vivo, Xanthium strumarium
# Summary of the method: (§1)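 Response is a visual 0-to-10 score relative to untreated plants, where 0 means no effect and 10 means complete control, taken twelve to sixteen days after application. Treatments went onto soil at planting and onto foliage of 1- to 4-leaf plants, using a surfactant-containing non-phytotoxic solvent.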
# sugar beet = assay: Test B pre/postemergence sugar beet; assay type: in vivo, Beta vulgaris
# Summary of the method: as §1
# smallflower flatsedge = assay: Test B flood test smallflower flatsedge; assay type: in vivo, Cyperus difformis
# Summary of the method: (§2)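 Read-out is a visual response score from 0 (no effect) to 10 (complete control), assigned by comparison with untreated controls. Treatment was applied at the 2-leaf stage, and plants stayed in the greenhouse for twelve to sixteen days before scoring.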
# bamyardgrass = assay: Test B flood test barnyardgrass; assay type: in vivo, Echinochloa crus-galli
# Summary of the method: as §2
# [1] = Postemergence, Rate 125 g/ha, scale 0 to 10, 0 is no effect, 10 is complete control
# [2] = Postemergence, Rate 250 g/ha, scale 0 to 10, 0 is no effect, 10 is complete control
# [3] = Preemergence, Rate 62 g/ha, scale 0 to 10 (0 no effect, 10 complete control)
# [4] = Preemergence, Rate 250 g/ha, scale of 0 to 10 where 0 is no effect and 10 is complete control
# [5] = Preemergence, Rate 500 g/ha, scale of 0 to 10 where 0 is no effect and 10 is complete control
# [6] = Rate 62 g/ha, Postemergence, scale of 0 to 10 where 0 is no effect and 10 is complete control
# [7] = Rate 500 g/ha, Postemergence, scale 0 to 10, 0 no effect, 10 complete control
# [8] = Rate 62 g/ha, flood test species, Pre-emergence, visual evaluation after twelve to sixteen days
# [9] = Rate 125 g/ha, under heading Pre-emergence, flood test species, visual evaluation after twelve to sixteen days
# [10] = Rate 250 g/ha, Pre-emergence, flood-test species, scale 0 to 10, 0 is no effect, 10 is complete control
# [11] = Rate 500 g/ha, Pre-emergence, flood test species, scale 0 to 10 (0 no effect, 10 complete control)
# [12] = Preemergence, Rate 62 g/ha, scale of 0 to 10 where 0 is no effect and 10 is complete control
# [13] = Rate 125 g/ha, Postemergence, scale 0 to 10
# [14] = Rate 125 g/ha, Preemergence, scale of 0 to 10 where 0 is no effect and 10 is complete control
# [15] = Rate 500 g/ha, Postemergence, scale 0 to 10
# [16] = Rate 62 g/ha, headed Pre-emergence (flood test species), scale 0 to 10 (0 no effect, 10 complete control)
# [17] = Rate 125 g/ha, Pre-emergence, flood test species, scale 0 to 10 where 0 is no effect and 10 is complete control
# [18] = Postemergence, Rate 125 g/ha, scale of 0 to 10 where 0 is no effect and 10 is complete control
# [19] = Preemergence, Rate 125 g/ha, 0 is no effect, 10 is complete control
# [20] = Preemergence, Rate 250 g/ha, scale 0 to 10, 0 is no effect, 10 is complete control
# [21] = Preemergence, Rate 500 g/ha, scale 0 to 10 (0 no effect, 10 complete control)
# [22] = Rate 250 g/ha, Postemergence, scale 0 to 10, 0 is no effect, 10 is complete control
# [23] = Postemergence (flood test species), Rate 125 g/ha, scale of 0 to 10 where 0 is no effect and 10 is complete control
# [24] = Rate 62 g/ha, Postemergence section, flood test species, scale of 0 to 10 where 0 is no effect and 10 is complete control
# [25] = Rate 250 g/ha, Postemergence (flood test), scale 0 to 10, 0 is no effect, 10 is complete control
compound,measurement,setting,value
CCOc1nc(C(F)(F)F)c(Cn2c(=O)on(C(=O)N(c3ccc(F)cc3)C(C)C)c2=O)s1 [Compound 381],"Plant response rating, Cocklebur",cocklebur; [1],0
same,"Plant response rating, Cocklebur",cocklebur; [2],0
same,"Plant response rating, Cocklebur",cocklebur; [3],0
same,Cocklebur plant response rating (0 to 10 scale),"cocklebur; Preemergence, Rate 125 g/ha",0
same,Cocklebur plant response rating,cocklebur; [4],0
same,Cocklebur plant response rating,cocklebur; [5],0
same,Cocklebur plant response rating,cocklebur; [6],0
same,"Plant response rating, Cocklebur",cocklebur; [7],0
same,"Plant response rating, Sugarbeets",sugar beet; [1],0
same,"Plant response rating, Sugarbeets",sugar beet; [2],0
same,"Plant response rating, Sugarbeets",sugar beet; [3],0
same,Sugarbeets plant response rating (0 to 10 scale),"sugar beet; Preemergence, Rate 125 g/ha",0
same,Sugarbeets plant response rating,sugar beet; [4],0
same,Sugarbeets plant response rating,sugar beet; [5],0
same,Sugarbeets plant response rating,sugar beet; [6],0
same,"Plant response rating, Sugarbeets",sugar beet; [7],0
same,"Plant response rating, S. Flatsedge (0 to 10 scale, 0 is no effect, 10 is complete control)",smallflower flatsedge; [8],0
same,"S. Flatsedge plant response rating (0 to 10 scale, 0 is no effect, 10 is complete control)",smallflower flatsedge; [9],0
same,S. Flatsedge plant response rating,smallflower flatsedge; [10],0
same,S. Flatsedge plant response rating,smallflower flatsedge; [11],0
same,"Plant response rating, Barnyardgrass (0 to 10 scale, 0 is no effect, 10 is complete control)",bamyardgrass; [8],0
same,"Barnyardgrass plant response rating (0 to 10 scale, 0 is no effect, 10 is complete control)",bamyardgrass; [9],0
same,Barnyardgrass plant response rating,bamyardgrass; [10],0
same,Barnyardgrass plant response rating,bamyardgrass; [11],0
COC(=O)Cn1c(=O)on(C(=O)N(c2ccc(F)cc2)C(C)C)c1=O [Compound 215],Cocklebur plant response rating,cocklebur; [12],0
same,Cocklebur plant response rating,cocklebur; [4],0
same,"Plant response rating, Cocklebur",cocklebur; [5],0
same,Cocklebur plant response rating,cocklebur; [6],0
same,Cocklebur plant response rating,cocklebur; [13],0
same,Cocklebur plant response rating,cocklebur; [14],0
same,"Plant response rating (0 to 10; 0 is no effect, 10 is complete control), Cocklebur","cocklebur; Rate 250 g/ha, Postemergence",0
same,Cocklebur plant response rating,cocklebur; [15],0
same,Sugarbeets plant response rating,sugar beet; [12],0
same,Sugarbeets plant response rating,sugar beet; [4],2
same,"Plant response rating, Sugarbeets",sugar beet; [5],7
same,Sugarbeets plant response rating,sugar beet; [6],0
same,Sugarbeets plant response rating,sugar beet; [13],0
same,Sugarbeets plant response rating,sugar beet; [14],2
same,"Plant response rating (0 to 10; 0 is no effect, 10 is complete control), Sugarbeets","sugar beet; Rate 250 g/ha, Postemergence",0
same,Sugarbeets plant response rating,sugar beet; [15],0
same,S. Flatsedge plant response rating,smallflower flatsedge; [16],0
same,S. Flatsedge plant response rating,smallflower flatsedge; [17],0
same,S. Flatsedge plant response rating,smallflower flatsedge; [10],0
same,S. Flatsedge plant response rating,smallflower flatsedge; [11],0
same,Barnyardgrass plant response rating,bamyardgrass; [16],0
same,Barnyardgrass plant response rating,bamyardgrass; [17],0
same,Barnyardgrass plant response rating,bamyardgrass; [10],0
same,Barnyardgrass plant response rating,bamyardgrass; [11],0
CCN(CC)C(=O)n1oc(=O)n(Cc2ccccc2)c1=O [Compound 152],Cocklebur plant response rating,cocklebur; [18],0
same,Cocklebur plant response rating,cocklebur; [3],0
same,Cocklebur plant response rating (0 to 10 scale),cocklebur; [19],0
same,Cocklebur plant response rating,cocklebur; [20],0
same,Cocklebur plant response rating,cocklebur; [21],0
same,Cocklebur plant response rating,cocklebur; [6],0
same,"Plant response rating, Cocklebur",cocklebur; [22],0
same,Cocklebur plant response rating,cocklebur; [15],0
same,Sugarbeets plant response rating,sugar beet; [18],0
same,Sugarbeets plant response rating,sugar beet; [3],0
same,Sugarbeets plant response rating (0 to 10 scale),sugar beet; [19],0
same,Sugarbeets plant response rating,sugar beet; [20],0
same,Sugarbeets plant response rating,sugar beet; [21],0
same,Sugarbeets plant response rating,sugar beet; [6],0
same,"Plant response rating, Sugarbeets",sugar beet; [22],0
same,Sugarbeets plant response rating,sugar beet; [15],0
same,S. Flatsedge plant response rating,smallflower flatsedge; [23],0
same,S. Flatsedge plant response rating,smallflower flatsedge; [24],0
same,"Plant response rating, S. Flatsedge",smallflower flatsedge; [25],0
same,S. Flatsedge plant response rating,"smallflower flatsedge; Rate 500 g/ha, listed under Postemergence (flood test species), scale 0 to 10",0
same,Barnyardgrass plant response rating,bamyardgrass; [23],0
same,Barnyardgrass plant response rating,bamyardgrass; [24],0
same,"Plant response rating, Barnyardgrass",bamyardgrass; [25],0
same,Barnyardgrass plant response rating,"bamyardgrass; Rate 500 g/ha, listed under Postemergence (flood test species), scale 0 to 10, 0 no effect, 10 complete control",0
